This note sets out measurements from ChEMBL document CHEMBL1124763, “Nucleoside conjugates. 11. Synthesis and antitumor activity of 1-beta-D-arabinofuranosylcytosine and cytidine conjugates of thioether lipids” (1990).

For experiment [1], the system named is Mus musculus. Description: Increase of life span was determined against Ip implanted L1210 / ara-C (I) lymphoid leukemia in mice at a dose of 80 mg/kg per day. The class given is functional. The settings on record: route intraperitoneal.
For experiment [2], the system named is Mus musculus. Description: Increase of life span was determined against Ip implanted L1210 / ara-C (II) lymphoid leukemia in mice at a dose of 300 mg/kg per day. Type of experiment: functional. To be noted: route intraperitoneal.
The subject of experiment [3] is Mus musculus. Put plainly: Increase of life span was determined against Ip implanted L1210 / 0 lymphoid leukemia in mice at a dose of 200 mg/kg per day after treatment 1. The class given is functional. The settings on record: L1210/0, ip, route intraperitoneal.
The test system of experiment [4] is Mus musculus. Description: Increase of life span was determined against Ip implanted L1210 / 0 lymphoid leukemia in mice at a dose of 400 mg/kg per day after treatment 1. Type of experiment: functional. The settings on record: L1210/0, ip, route intraperitoneal.
In experiment [5] the test system is Mus musculus. Description: Increase of life span was determined against Ip implanted L1210 / 0 lymphoid leukemia in mice at a dose of 400 mg/kg per day after treatment 5. The class given is functional. To be noted: L1210/0, ip, route intraperitoneal.
The subject of experiment [6] is Mus musculus. Put plainly: Range of survival days for antitumor activity against Ip implanted L1210 / 0 lymphoid leukemia in mice at a dose of 200 mg/kg per day after treatment 1,8,15,22;range is 14->45. The class given is functional. The settings on record: route intraperitoneal.
In experiment [7] the test system is Mus musculus. Description: Range of survival days for antitumor activity against Ip implanted L1210 / 0 lymphoid leukemia in mice at a dose of 300 mg/kg per day after treatment 1,15;range is 21->45. Type of experiment: functional. The settings on record: route intraperitoneal.
Experiment [8] concerns Mus musculus. Description: Range of survival days for antitumor activity against Ip implanted L1210 / 0 lymphoid leukemia in mice at a dose of 300 mg/kg per day after treatment 1;range is 18->45. The settings on record: route intraperitoneal. The class given is functional.
Experiment [9] relates to Mus musculus. Description: Range of survival days for antitumor activity against Ip implanted L1210 / 0 lymphoid leukemia in mice at a dose of 100 mg/kg per day after treatment 1,8,15,22;range is 16-32. Type of experiment: functional. The settings on record: route intraperitoneal.
Experiment [10] concerns Mus musculus. Put plainly: Range of survival days for antitumor activity against Ip implanted L1210 / 0 lymphoid leukemia in mice at a dose of 400 mg/kg per day after treatment 1;range is 9->45. Type of experiment: functional. To be noted: route intraperitoneal.
Experiment [11] concerns Mus musculus. Description: Survival time treated/survival time tested (T/C) for antitumor activity against Ip implanted L1210 / ara-C (II) lymphoid leukemia in mice at a dose of 300 mg/kg per day. The class given is functional. To be noted: route intraperitoneal.
Experiment [12] has as its system Mus musculus. Description: Median survival time for antitumor activity against Ip implanted L1210 / ara-C (I) lymphoid leukemia in mice at a dose of 80 mg/kg per day. To be noted: route intraperitoneal.
The subject of experiment [13] is Mus musculus. Put plainly: Median survival time for antitumor activity against Ip implanted L1210 / ara-C (I) lymphoid leukemia in mice at a dose of 133 mg/kg per day. To be noted: route intraperitoneal.
For experiment [14], the system named is Mus musculus. Description: Median survival time for antitumor activity against Ip implanted L1210 / ara-C (I) lymphoid leukemia in mice at a dose of 400 mg/kg per day. To be noted: route intraperitoneal.
Experiment [15] has as its system Mus musculus. Put plainly: Survival time treated for antitumor activity against Ip implanted L1210 / 0 lymphoid leukemia in mice at a dose of 300 mg/kg per day after treatment 1;33/7. The settings on record: route intraperitoneal.
In experiment [16] the test system is Mus musculus. Description: Survival time treated for antitumor activity against Ip implanted L1210 / 0 lymphoid leukemia in mice at a dose of 200 mg/kg per day after treatment 1,15;27.5/7. The settings on record: route intraperitoneal.
For experiment [17], the system named is Mus musculus. Description: Survival time treated for antitumor activity against Ip implanted L1210 / 0 lymphoid leukemia in mice at a dose of 100 mg/kg per day after treatment 1,8,15,22;24/7. To be noted: route intraperitoneal.
Experiment [18] relates to Mus musculus. Put plainly: Survival time of treated mice for antitumor activity against Ip implanted L1210 / 0 lymphoid leukemia in mice at a dose of 400 mg/kg per day after treatment 1;29.5/7. To be noted: route intraperitoneal.
Experiment [19] has as its system Mus musculus. Put plainly: Survival time of treated mice for antitumor activity against Ip implanted L1210 / 0 lymphoid leukemia in mice at a dose of 400 mg/kg per day after treatment 2;19.5/7. To be noted: route intraperitoneal.

Some results are limits rather than exact numbers.

In the case of `CCCCCCCCCCCCCCCCCCSCC(COP(=O)(O)OP(=O)(O)OC[C@H]1O[C@@H](n2ccc(N)nc2=O)[C@@H](O)[C@@H]1O)OC(=O)CCCCCCCCCCCCCCC` (mixture of isomers), the ILS at 80 mg/kg/day in the experiment on Mus musculus [1] was above 350%. The compound also showed an ILS at 300 mg/kg/day in the experiment on Mus musculus [2] of 0%. This compound displayed an ILS at 200 mg/kg/day in the experiment with Mus musculus [3] of 357%. Moreover, the values for the increase in lifespan (ILS) at 400 mg/kg/day with Mus musculus [4] and in the experiment with Mus musculus [5] were 321% and 107%, respectively. Moreover, the “Range of survival days” value in the experiment with Mus musculus [6] is given as above 14; with Mus musculus [7] it was above 21; with Mus musculus [8], above 18; in the experiment on Mus musculus [9] it was 16; with Mus musculus [10], above 9. The median survival time with Mus musculus [11] is 9 days; in the experiment on Mus musculus [12], above 45 days; with Mus musculus [13] it was above 45 days; in the experiment on Mus musculus [14], above 45 days. The survival time came out at 33 days in the experiment on Mus musculus [15]; 27.5 days in the experiment on Mus musculus [16]; 24 days in the experiment on Mus musculus [17]; 29.5 days in the experiment with Mus musculus [18]; 19.5 days in the experiment with Mus musculus [19].

The term ILS denotes the gain in survival time of treated over control animals, in per cent. A lower ILS goes with little gain in survival.
